{"source": "patent US10239832B2", "about": "“N-(1-hydroxy-3-(pyrrolidinyl)propan-2-yl)pyrrolidine-3-carboxamide derivatives as glucosylceramide synthase inhibitors” (BIOMARIN PHARMACEUTICAL INC., priority 2013, dated 2019)", "biological_target": "T1, GCS (Canis lupus familiaris, UniProt A0A8I3MXG6)", "T1 construct": "endogenous in cells; host or cells: MDCK (Madin-Darby canine kidney) cells, whole-cell lysate", "T1 sequence (A0A8I3MXG6 1-394)": "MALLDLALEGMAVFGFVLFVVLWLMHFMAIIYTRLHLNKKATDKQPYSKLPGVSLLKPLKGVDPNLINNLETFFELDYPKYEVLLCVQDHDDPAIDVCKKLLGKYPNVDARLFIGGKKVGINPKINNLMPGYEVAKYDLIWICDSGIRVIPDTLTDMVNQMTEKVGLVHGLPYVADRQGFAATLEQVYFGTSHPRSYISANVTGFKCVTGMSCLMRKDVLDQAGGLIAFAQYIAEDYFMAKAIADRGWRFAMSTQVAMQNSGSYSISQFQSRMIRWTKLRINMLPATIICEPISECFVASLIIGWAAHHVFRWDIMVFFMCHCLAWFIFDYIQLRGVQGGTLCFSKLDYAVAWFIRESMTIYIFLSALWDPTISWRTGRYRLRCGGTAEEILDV", "assay": "GCS enzymatic assay (MDCK cell lysate, NBD-ceramide to glucosylceramide, LC/MS)", "assay_type": "biochemical, canine", "settings": "Table 2, the table does not say which of the assays; for Data Range (% inhibition): class symbols D, E, F, NA (not active); for IC50: class symbols A, B, C, read-out: Data Range (IC50 values)", "method_in_brief": "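IC50 or percent inhibition came from LC/MS/MS (ESI+, MRM) of NBD-ceramide and glucosylceramide, with tolbutamide as internal standard. The reaction used MDCK (canine) cell lysate as the enzyme source and was ended with acetonitrile. Mock wells received 0.1% DMSO.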"}
{"smiles": "CC1(C)CCc2cc([C@@H](O)[C@@H](CN3CCCC3)NC(=O)[C@H]3CCN(c4ccc(Cl)cc4)C3)ccc2O1", "note": "[Compound 51A, (S)-1-(4-chlorophenyl)-N-((1R,2R)-1-(2,2-dimethylchroman-6-yl)-1-hydroxy-3-(pyrrolidin-1-yl)propan-2-yl)pyrrolidine-3-carboxamide]", "values": [{"measurement": "Data Range (% inhibition)", "value": "NA (not active—a negative value was generated for % inhibition)"}]}
{"smiles": "O=C(N[C@H](CN1CCCC1)[C@H](O)c1ccc2c(c1)OCCO2)[C@@H]1CCN(c2ccc3cc(Cl)sc3c2)C1", "note": "[Compound 76, (R)-1-(2-chlorobenzo[b]thiophen-6-yl)-N-((1R,2R)-1-(2,3-dihydrobenzo[b][1,4]dioxin-6-yl)-1-hydroxy-3-(pyrrolidin-1-yl)propan-2-yl)pyrrolidine-3-carboxamide]", "values": [{"measurement": "IC50", "value": "30 to 100", "unit": "nM"}]}
{"smiles": "O=C(N[C@H](CN1CCCC1)[C@H](O)c1ccc2c(c1)OCCO2)[C@@H]1CCN(c2ccc(Cl)cn2)C1", "note": "[Compound 28, (R)-1-(5-chloropyridin-2-yl)-N((1R,2R)-1-(2,3-dihydrobenzo[b][1,4]dioxin-6-yl)-1-hydroxy-3-(pyrrolidin-1-yl)propan-2-yl)pyrrolidine-3-carboxamide]", "values": [{"measurement": "Data Range (% inhibition)", "value": "E (50-74% (or less than 75%))"}]}
{"smiles": "O=C(N[C@H](CN1CCCC1)[C@H](O)c1ccc2c(c1)OCCO2)[C@@H]1CCN(c2ccc3cc(F)ccc3c2Cl)C1", "note": "[Compound 88, (R)-1-(1-chloro-6-fluoronaphthalen-2-yl)-N-((1R,2R)-1-(2,3-dihydrobenzo[b][1,4]dioxin-6-yl)-1-hydroxy-3-(pyrrolidin-1-yl)propan-2-yl)pyrrolidine-3-carboxamide]", "values": [{"measurement": "Data Range (% inhibition)", "value": "D (75-100%)"}]}
{"smiles": "CC1(C)CCc2cc([C@@H](O)[C@@H](CN3CCCC3)NC(=O)[C@@H]3CCN(c4ccc(Cl)cc4)C3)ccc2O1", "note": "[Compound 51, (R)-1-(4-chlorophenyl)-N-((1R,2R)-1-(2,2-dimethylchroman-6-yl)-1-hydroxy-3-(pyrrolidin-1-yl)propan-2-yl)pyrrolidine-3-carboxamide]", "values": [{"measurement": "Data Range (% inhibition)", "value": "F (1-49% (or less than 50%))"}]}
{"smiles": "O=C(N[C@H](CN1CCCC1)[C@H](O)c1ccc(OC2CC2)c(Cl)c1)[C@H]1CCN(c2ccccn2)C1", "note": "[Compound 54A, (S)-N-((1R,2R)-1-(3-chloro-4-cyclopropoxyphenyl)-1-hydroxy-3-(pyrrolidin-1-yl)propan-2-yl)-1-(pyridin-2-yl)pyrrolidine-3-carboxamide]", "values": [{"measurement": "Data Range (% inhibition)", "value": "F (1-49% (or less than 50%))"}]}
{"smiles": "O=C(N[C@H](CN1CCCC1)[C@H](O)c1ccc(OC2CC2)c(Cl)c1)[C@@H]1CCN(c2ccccn2)C1", "note": "[Compound 54, (R)-N-((1R,2R)-1-(3-chloro-4-cyclopropoxyphenyl)-1-hydroxy-3-(pyrrolidin-1-yl)propan-2-yl)-1-(pyridin-2-yl)pyrrolidine-3-carboxamide]", "values": [{"measurement": "IC50", "value": "1 to 30", "unit": "nM"}]}
{"smiles": "O=C(N[C@H](CN1CCCC1)[C@H](O)c1ccc2c(c1)OCCO2)[C@H]1CCN(Cc2ccc(Cl)cc2)C1", "note": "[Compound 15D, (S)-1-(4-chlorobenzyl)-N-((1R,2R)-1-(2,3-dihydrobenzo[b][1,4]dioxin-6-yl)-1-hydroxy-3-(pyrrolidin-1-yl)propan-2-yl)pyrrolidine-3-carboxamide]", "values": [{"measurement": "Data Range (% inhibition)", "value": "F (1-49% (or less than 50%))"}]}
{"smiles": "O=C(N[C@H](CN1CCCC1)[C@H](O)c1cc(F)c2c(c1)OCCO2)[C@@H]1CCN(C(=O)c2ccccc2)C1", "note": "[Compound 120, (R)-1-benzoyl-N-((1R,2R)-1-(8-fluoro-2,3-dihydrobenzo[b][1,4]dioxin-6-yl)-1-hydroxy-3-(pyrrolidin-1-yl)propan-2-yl)pyrrolidine-3-carboxamide]", "values": [{"measurement": "Data Range (% inhibition)", "value": "F (1-49% (or less than 50%))"}]}
{"smiles": "O=C(N[C@H](CN1CCCC1)[C@H](O)c1ccc2c(c1)OCCO2)[C@@H]1CCN(c2cccc(-c3ccc(F)cc3)n2)C1", "note": "[Compound 123, (R)-N-((1R,2R)-1-(2,3-dihydrobenzo[b][1,4]dioxin-6-yl)-1-hydroxy-3-(pyrrolidin-1-yl)propan-2-yl)-1-(6-(4-fluorophenyl)pyridin-2-yl)pyrrolidine-3-carboxamide]", "values": [{"measurement": "IC50", "value": "1 to 30", "unit": "nM"}]}
{"smiles": "O=C(N[C@H](CN1CCCC1)[C@H](O)c1ccc(OC2CC2)c(Cl)c1)[C@@H]1CCN(C(=O)c2ccccc2)C1", "note": "[Compound 129, (R)-1-benzoyl-N-((1R,2R)-1-(3-chloro-4-cyclopropoxyphenyl)-1-hydroxy-3-(pyrrolidin-1-yl)propan-2-yl)pyrrolidine-3-carboxamide]", "values": [{"measurement": "Data Range (% inhibition)", "value": "F (1-49% (or less than 50%))"}]}
{"smiles": "CC1(C)CCc2cc(N3CCC(C(=O)N[C@H](CN4CCCC4)[C@H](O)c4ccc5c(c4)OCCO5)C3)ccc2O1", "note": "(stereo partly drawn) [Compound 64, N-((1R,2R)-1-(2,3-dihydrobenzo[b][1,4]dioxin-6-yl)-1-hydroxy-3-(pyrrolidin-1-yl)propan-2-yl)-1-(2,2-dimethylchroman-6-yl)pyrrolidine-3-carboxamide]", "values": [{"measurement": "Data Range (% inhibition)", "value": "F (1-49% (or less than 50%))"}]}
{"smiles": "O=C(N[C@H](CN1CCCC1)[C@H](O)c1cc(F)c2c(c1)OCCO2)[C@@H]1CCN(c2ccc(Cl)c(Oc3ccccn3)c2)C1", "note": "[Compound 105, (R)-1-(4-chloro-3-(pyridin-2-yloxy)phenyl)-N-((1R,2R)-1-(8-fluoro-2,3-dihydrobenzo[b][1,4]dioxin-6-yl)-1-hydroxy-3-(pyrrolidin-1-yl)propan-2-yl)pyrrolidine-3-carboxamide]", "values": [{"measurement": "IC50", "value": "1 to 30", "unit": "nM"}]}
{"smiles": "CC(C)(C)c1ccc(N2CC[C@@H](C(=O)N[C@H](CN3CCCC3)[C@H](O)c3cc(F)c4c(c3)OCCO4)C2)cc1", "note": "[Compound 142, (R)-1-(4-(tert-butyl)phenyl)-N-((1R,2R)-1-(8-fluoro-2,3-dihydrobenzo[b][1,4]dioxin-6-yl)-1-hydroxy-3-(pyrrolidin-1-yl)propan-2-yl)pyrrolidine-3-carboxamide]", "values": [{"measurement": "IC50", "value": "30 to 100", "unit": "nM"}]}
{"smiles": "O=C(N[C@H](CN1CCCC1)[C@H](O)c1cc(F)c2c(c1)OCCO2)[C@@H]1CCN(c2ccc3c(c2)CCCC3)C1", "note": "[Compound 93, (R)-N-((1R,2R)-1-(8-fluoro-2,3-dihydrobenzo[b][1,4]dioxin-6-yl)-1-hydroxy-3-(pyrrolidin-1-yl)propan-2-yl)-1-(5,6,7,8-tetrahydronaphthalen-2-yl)pyrrolidine-3-carboxamide]", "values": [{"measurement": "IC50", "value": "1 to 30", "unit": "nM"}]}
{"smiles": "O=C(N[C@H](CN1CCCC1)[C@H](O)c1ccc(OC2CC2)c(Cl)c1)[C@@H]1CCN(c2ccc(Cl)c(-c3ccc(F)cc3)n2)C1", "note": "[Compound 146, (R)-N-((1R,2R)-1-(3-chloro-4-cyclopropoxyphenyl)-1-hydroxy-3-(pyrrolidin-1-yl)propan-2-yl)-1-(5-chloro-6-(4-fluorophenyl)pyridin-2-yl)pyrrolidine-3-carboxamide]", "values": [{"measurement": "IC50", "value": "1 to 30", "unit": "nM"}]}
{"smiles": "O=C(N[C@H](CN1CCCC1)[C@H](O)c1ccc2c(c1)OCCO2)[C@@H]1CCN(c2cnc3cccnc3c2)C1", "note": "[Compound 90, (R)-N-((1R,2R)-1-(2,3-dihydrobenzo[b][1,4]dioxin-6-yl)-1-hydroxy-3-(pyrrolidin-1-yl)propan-2-yl)-1-(1,5-naphthyridin-3-yl)pyrrolidine-3-carboxamide]", "values": [{"measurement": "Data Range (% inhibition)", "value": "F (1-49% (or less than 50%))"}]}
{"smiles": "O=C(N[C@H](CN1CCCC1)[C@H](O)c1ccc2c(c1)OCCO2)[C@@H]1CCN(c2ccc3ccccc3n2)C1", "note": "[Compound 72, (R)-N-((1R,2R)-1-(2,3-dihydrobenzo[b][1,4]dioxin-6-yl)-1-hydroxy-3-(pyrrolidin-1-yl)propan-2-yl)-1-(quinolin-2-yl)pyrrolidine-3-carboxamide]", "values": [{"measurement": "IC50", "value": "1 to 30", "unit": "nM"}]}
{"smiles": "O=C(N[C@H](CN1CCCC1)[C@H](O)c1ccc2c(c1)OCCO2)C1CCN(c2ccc(Cl)cn2)C1", "note": "(stereo partly drawn) [Compound 28C, 1-(5-chloropyridin-2-yl)-N-((1R,2R)-1-(2,3-dihydrobenzo[b][1,4]dioxin-6-yl)-1-hydroxy-3-(pyrrolidin-1-yl)propan-2-yl)pyrrolidine-3-carboxamide]", "values": [{"measurement": "Data Range (% inhibition)", "value": "F (1-49% (or less than 50%))"}]}
{"smiles": "O=C(N[C@H](CN1CCC1)[C@H](O)c1ccc(OC2CC2)cc1)[C@@H]1CCN(c2ccc3ccsc3c2)C1", "note": "[Compound 158, (R)-N-((1R,2R)-3-(azetidin-1-yl)-1-(4-cyclopropoxyphenyl)-1-hydroxypropan-2-yl)-1-(benzo[b]thiophen-6-yl)pyrrolidine-3-carboxamide]", "values": [{"measurement": "IC50", "value": "30 to 100", "unit": "nM"}]}
{"smiles": "O=C(N[C@H](CN1CCCC1)[C@H](O)c1ccc2c(c1)OCCO2)[C@@H]1CCN(c2ccc3ccsc3c2)C1", "note": "[Compound 53, (R)-1-(benzo[b]thiophen-6-yl)-N-((1R,2R)-1-(2,3-dihydrobenzo[b][1,4]dioxin-6-yl)-1-hydroxy-3-(pyrrolidin-1-yl)propan-2-yl)pyrrolidine-3-carboxamide]", "values": [{"measurement": "Data Range (% inhibition)", "value": "E (50-74% (or less than 75%))"}]}
{"smiles": "O=C(N[C@H](CN1CCC1)[C@H](O)c1ccc2c(c1)OCCO2)[C@@H]1CCN(c2ccc3cc(F)ccc3c2)C1", "note": "[Compound 79, (R)-N-((1R,2R)-3-(azetidin-1-yl)-1-(2,3-dihydrobenzo[b][1,4]dioxin-6-yl)-1-hydroxypropan-2-yl)-1-(6-fluoronaphthalen-2-yl)pyrrolidine-3-carboxamide]", "values": [{"measurement": "IC50", "value": "1 to 30", "unit": "nM"}]}
